Experimental data as given in patent US12606561B2, “Substituted pyrazolo[1,5-a][1,3,5]triazines as CDK inhibitors” (QURIENT CO., LTD., priority 2018, dated 2026).
pIC50: −log10 of the molar value.

Assays:
[1] = target: T1, CDK1/Cyclin B (Homo sapiens, UniProt P06493); assay: Enzymatic assay for CDK1 (LANCE Ultra kinase assay, FRET based); assay type: biochemical; settings: ATP at Km; read-out: CDK1 enzymatic activity IC50
T1 construct: purchased Invitrogen PR4768C
Summary of the method: (§1)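 With ATP set at its Km, compounds were tested against purified CDK/cyclin complexes phosphorylating a ULight-labeled peptide. Signal came from FRET between the peptide and a Europium-labeled anti-phospho-antibody.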

[2] = tested on: A2780; assay: A2780 viability assay (CellTiter-Glo, 72 hours); assay type: cell-based; settings: Homo sapiens; A2780 cells
Description: (§2) Human […] cell line, MV4-11_(ATCC, Cat #CRL-9591), NSCLC (Non-small cell lung cancer) cell line H460 (ATCC, Cat #HTB-177), A2780 (ECACC, Cat #93112519) and OVCAR-3(ATCC, Cat #HTB-161) were obtained from ATCC. Cells were grown in RPMI-1640 media (Invitrogen, Cat #22400-089) supplemented with 10% FBS (Invitrogen, Cat #10099141) and 1% penicillin/streptomycin (Invitrogen, Cat #15070063) and cultured at 37° C., 5% CO2 in a humidified chamber. All cell lines were routinely tested for mycoplasma.
(§3) To effect of the CDK7 inhibitor to inhibit the growth of target cancer cells, viability assay were conducted a 72 hour time period. Briefly, the candidate cell line was plated in 96 well plate at the following density of cells respectively. 1×10^4 cells/well for MV4-11, 5×10^3 for H460 and OVCAR-3, and 1×10^3 for A2780. After 24 hours, the cells were treated with various concentrations of the compound (ranging from 0.0015 uM to 10 uM). DMSO solvent without compound served as a control and final DMSO concentration lest than 0.1%. After 72 hours of incubation at 37° C., 5% CO2 incubator, cells were analyzed for the viability using the CellTiter-Glo Luminescent Cell Viability Assay (Promega, Cat #G7570). All viability assays were performed in duplicate and Luminescence was read using an Envision (Perkin Elmer, USA). Data was analyzed using XLfit software.

[3] = target: T2, CDK7/Cyclin H/MNAT1 (Homo sapiens, UniProt P50613); assay: Enzymatic assay for CDK7 (LANCE Ultra kinase assay, FRET based); assay type: biochemical; settings: for pIC50: ATP at Km
T2 construct: purchased Invitrogen PR6749B
T2 sequence (P50613 whole entry): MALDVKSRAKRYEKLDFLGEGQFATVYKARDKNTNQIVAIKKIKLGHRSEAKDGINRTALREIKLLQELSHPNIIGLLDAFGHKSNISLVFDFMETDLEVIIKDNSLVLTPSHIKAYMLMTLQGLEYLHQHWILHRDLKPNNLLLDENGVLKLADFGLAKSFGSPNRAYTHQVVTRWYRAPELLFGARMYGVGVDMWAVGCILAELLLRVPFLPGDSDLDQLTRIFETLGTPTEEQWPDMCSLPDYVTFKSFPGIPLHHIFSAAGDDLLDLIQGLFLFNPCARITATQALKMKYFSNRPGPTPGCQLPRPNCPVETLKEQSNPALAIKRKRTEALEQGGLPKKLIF
T2 sequence (P51946 whole entry partner): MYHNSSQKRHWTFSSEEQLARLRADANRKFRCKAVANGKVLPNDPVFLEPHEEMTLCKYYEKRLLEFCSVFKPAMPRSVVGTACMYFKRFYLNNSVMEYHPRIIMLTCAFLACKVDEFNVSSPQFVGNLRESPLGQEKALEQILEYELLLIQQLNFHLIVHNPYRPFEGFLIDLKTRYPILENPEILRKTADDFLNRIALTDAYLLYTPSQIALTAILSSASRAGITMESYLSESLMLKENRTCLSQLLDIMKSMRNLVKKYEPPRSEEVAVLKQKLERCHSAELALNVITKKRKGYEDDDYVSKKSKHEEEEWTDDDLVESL
T2 sequence (P51948 whole entry partner): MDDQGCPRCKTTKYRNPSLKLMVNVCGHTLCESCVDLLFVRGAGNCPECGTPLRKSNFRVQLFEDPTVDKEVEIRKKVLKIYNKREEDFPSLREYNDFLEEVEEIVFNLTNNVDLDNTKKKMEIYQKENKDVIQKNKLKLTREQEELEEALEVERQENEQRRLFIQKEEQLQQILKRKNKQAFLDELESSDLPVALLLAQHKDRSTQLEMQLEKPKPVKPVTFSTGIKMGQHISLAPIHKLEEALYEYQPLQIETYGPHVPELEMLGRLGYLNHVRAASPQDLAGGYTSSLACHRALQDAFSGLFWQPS
Summary of the method: as §1

[4] = target: T3, CDK2/Cyclin A (Homo sapiens, UniProt P24941); assay: Enzymatic assay for CDK2 (LANCE Ultra kinase assay, FRET based); assay type: biochemical; settings: ATP at Km
T3 construct: purchased Invitrogen PV6290
Summary of the method: (§4)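 Inhibition was measured at ATP Km with 68 nM ULight-MBP peptide and CDK2/Cyclin A ([…]) or CDK5/p25 ([…]), using 8-dose 4-fold compound dilutions from DMSO. Kinase reaction ran 60 min at 23° C, then Eu anti-phospho-MBP plus EDTA were added for another 60 min before the fluorescence read.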

[5] = target: T4, CDK5/p25 (Homo sapiens, UniProt Q00535); assay: Enzymatic assay for CDK5 (LANCE Ultra kinase assay, FRET based); assay type: biochemical; settings: ATP at Km
T4 construct: purchased Invitrogen PR8543B
T4 sequence (Q00535 whole entry): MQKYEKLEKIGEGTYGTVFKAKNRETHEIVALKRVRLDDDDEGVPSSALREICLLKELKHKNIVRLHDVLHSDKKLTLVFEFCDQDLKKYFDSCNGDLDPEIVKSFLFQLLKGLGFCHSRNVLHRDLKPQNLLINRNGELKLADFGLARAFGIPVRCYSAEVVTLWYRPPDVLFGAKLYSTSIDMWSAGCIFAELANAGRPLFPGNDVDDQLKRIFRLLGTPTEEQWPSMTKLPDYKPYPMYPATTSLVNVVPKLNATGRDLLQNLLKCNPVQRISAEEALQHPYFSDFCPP
T4 sequence (Q15078 99-307 partner limits assumed): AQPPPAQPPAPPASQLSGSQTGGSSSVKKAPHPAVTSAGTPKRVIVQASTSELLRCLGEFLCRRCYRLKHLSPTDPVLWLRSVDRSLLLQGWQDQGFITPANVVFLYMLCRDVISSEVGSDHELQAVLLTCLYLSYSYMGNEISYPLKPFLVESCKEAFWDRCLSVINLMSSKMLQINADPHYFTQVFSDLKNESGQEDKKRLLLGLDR
Summary of the method: as §4

[6] = tested on: OVCAR-3; assay: OVCAR-3 viability assay (CellTiter-Glo, 72 hours); assay type: cell-based; settings: Homo sapiens; OVCAR-3 cells
Description: as §2, §3

T1 sequence (P06493 whole entry): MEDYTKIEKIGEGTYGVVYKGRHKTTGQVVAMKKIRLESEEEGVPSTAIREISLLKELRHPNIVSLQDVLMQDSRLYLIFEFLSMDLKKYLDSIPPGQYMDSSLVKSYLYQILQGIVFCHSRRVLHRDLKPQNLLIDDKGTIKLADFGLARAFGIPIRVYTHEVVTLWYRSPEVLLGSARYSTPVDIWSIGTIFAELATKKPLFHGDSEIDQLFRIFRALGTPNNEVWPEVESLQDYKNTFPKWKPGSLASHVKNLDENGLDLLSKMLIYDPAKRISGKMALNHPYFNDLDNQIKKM
T1 sequence (P14635 whole entry partner): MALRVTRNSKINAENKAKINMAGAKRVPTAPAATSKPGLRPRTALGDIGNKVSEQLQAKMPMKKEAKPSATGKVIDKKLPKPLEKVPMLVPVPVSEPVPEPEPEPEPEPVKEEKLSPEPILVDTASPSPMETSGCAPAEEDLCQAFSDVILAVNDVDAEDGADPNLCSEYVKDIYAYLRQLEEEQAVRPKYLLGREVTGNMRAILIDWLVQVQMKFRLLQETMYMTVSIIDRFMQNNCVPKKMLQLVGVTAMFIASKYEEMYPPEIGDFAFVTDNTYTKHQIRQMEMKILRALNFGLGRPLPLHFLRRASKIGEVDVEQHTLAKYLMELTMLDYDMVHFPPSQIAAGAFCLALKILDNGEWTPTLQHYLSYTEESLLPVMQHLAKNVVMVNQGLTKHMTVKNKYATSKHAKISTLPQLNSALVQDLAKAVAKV

Row | Structure (SMILES) | pIC50 [1] | pIC50 [2] | pIC50 [3] | CDK1/CDK7: Selectivity of CDK7 inhibition over CDK1 inhibition [3] | CDK2/CDK7: Selectivity of CDK7 inhibition over CDK2 inhibition [3] | CDK5/CDK7: Selectivity of CDK7 inhibition over CDK5 inhibition [3] | pIC50 [4] | pIC50 [5] | pIC50 [6]
1 | C=C(F)C(=O)Nc1ccc2c(-c3ccccc3CNc3cc(NC[C@H]4CCNC[C@@H]4O)nc4c(C(C)C)cnn34)nccc2c1 [Compound 82] | < 6.00 | > 6.00 | > 7.00 | A (A indicates [fold] > 500) | A (A indicates [fold] > 500) | A (A indicates [fold] > 500) | < 6.00 | < 6.00 | > 6.00
2 | C=C(F)C(=O)Nc1ccc2c(-c3ccccc3CNc3nc(NC[C@H]4CNC[C@@H]4O)nc4c(C(C)C)cnn34)nccc2c1 [Compound 83] | < 6.00 | > 6.00 | > 7.00 | A (A indicates [fold] > 500) | A (A indicates [fold] > 500) | A (A indicates [fold] > 500) | < 6.00 | < 6.00 | > 6.00
3 | C=C(F)C(=O)Nc1ccc2c(-c3ccccc3CNc3nc(NC4CCC(OC)CC4)nc4c(C(C)C)cnn34)nccc2c1 (centres unmarked) [Compound 84] | < 6.00 | > 6.00 | 6.00 to 7.00 | B (B indicates 50 < [fold] ≤ 500) | B (B indicates 50 < [fold] ≤ 500) | B (B indicates 50 < [fold] ≤ 500) | < 6.00 | < 6.00 | > 6.00
4 | C=C(F)C(=O)Nc1ccc2c(-c3ccccc3CNc3nc(N4CCC(OCC)CC4)nc4c(C(C)C)cnn34)nccc2c1 [Compound 85] | < 6.00 | > 6.00 | 6.00 to 7.00 | B (B indicates 50 < [fold] ≤ 500) | B (B indicates 50 < [fold] ≤ 500) | B (B indicates 50 < [fold] ≤ 500) | < 6.00 | < 6.00 | > 6.00
5 | C=C(F)C(=O)Nc1ccc2c(-c3ccccc3CNc3nc(N4CCC(OC(F)(F)F)CC4)nc4c(C(C)C)cnn34)nccc2c1 [Compound 86] | < 6.00 | 5.00 to 6.00 | < 6.00 | C (C indicates [fold] ≤ 50) | C (C indicates [fold] ≤ 50) | C (C indicates [fold] ≤ 50) | < 6.00 | < 6.00 | > 6.00
6 | C=CC(=O)Nc1ccc2c(-c3ccccc3CNc3nc(N4CCc5ncccc5C4)nc4c(C(C)C)cnn34)nccc2c1 [Compound 212] | < 6.00 | > 6.00 | > 7.00 | A (A indicates [fold] > 500) | A (A indicates [fold] > 500) | A (A indicates [fold] > 500) | < 6.00 | < 6.00 | 
7 | C=CC(=O)Nc1ccc2c(-c3cccc(C(F)(F)F)c3CNc3nc(Nc4cccnc4)nc4c(C(C)C)cnn34)nccc2c1 [Compound 213] | < 6.00 | 5.00 to 6.00 | < 6.00 | C (C indicates [fold] ≤ 50) | C (C indicates [fold] ≤ 50) | C (C indicates [fold] ≤ 50) | < 6.00 | < 6.00 | 
8 | CC(C)c1cnn2c(NCc3ccccc3-c3nccc4cc(NC(=O)/C=C/CN(C)C)ccc34)cc(N3CCNC(C(F)(F)F)C3)nc12 (centres unmarked) [Compound 214] | < 6.00 | > 6.00 | > 7.00 | A (A indicates [fold] > 500) | A (A indicates [fold] > 500) | A (A indicates [fold] > 500) | < 6.00 | < 6.00 | 
9 | C=CC(=O)Nc1ccc2c(-c3ccccc3CNc3nc(NC4CCC(C)(C)NC4)nc4c(C(F)(F)F)cnn34)nccc2c1 (centres unmarked) [Compound 215] | < 6.00 | > 6.00 | > 7.00 | A (A indicates [fold] > 500) | A (A indicates [fold] > 500) | A (A indicates [fold] > 500) | < 6.00 | < 6.00 | 

The next lines start with the values.

Row | pIC50 [1] | pIC50 [2] | pIC50 [3] | CDK1/CDK7: Selectivity of CDK7 inhibition over CDK1 inhibition [3] | CDK2/CDK7: Selectivity of CDK7 inhibition over CDK2 inhibition [3] | CDK5/CDK7: Selectivity of CDK7 inhibition over CDK5 inhibition [3] | pIC50 [4] | pIC50 [5] | pIC50 [6] | Structure (SMILES)
10 | < 6.00 | > 6.00 | > 7.00 | A (A indicates [fold] > 500) | A (A indicates [fold] > 500) | A (A indicates [fold] > 500) | < 6.00 | < 6.00 | > 6.00 | C=C(F)C(=O)Nc1ccc2c(-c3ccccc3CNc3nc(NCC4CNCCO4)nc4c(C(C)C)cnn34)nccc2c1 (racemic) [Compound 80]
11 | < 6.00 | > 6.00 | > 7.00 | A (A indicates [fold] > 500) | A (A indicates [fold] > 500) | A (A indicates [fold] > 500) | < 6.00 | < 6.00 | > 6.00 | C=C(F)C(=O)Nc1ccc2c(-c3ccccc3CNc3nc(-c4cccc(OC5CCNC5)c4)nc4c(C(C)C)cnn34)nccc2c1 (racemic) [Compound 87]
12 | < 6.00 | > 6.00 | 6.00 to 7.00 | B (B indicates 50 < [fold] ≤ 500) | B (B indicates 50 < [fold] ≤ 500) | B (B indicates 50 < [fold] ≤ 500) | < 6.00 | < 6.00 | > 6.00 | C=C(F)C(=O)Nc1ccc2c(-c3ccccc3CNc3nc(NC4CCC(OC)C4)nc4c(C(C)C)cnn34)nccc2c1 (racemic) [Compound 98]
13 | < 6.00 | > 6.00 | 6.00 to 7.00 | B (B indicates 50 < [fold] ≤ 500) | B (B indicates 50 < [fold] ≤ 500) | B (B indicates 50 < [fold] ≤ 500) | < 6.00 | < 6.00 | > 6.00 | C=C(F)C(=O)Nc1ccc2c(-c3ccccc3CNc3nc(NC4CCC(OC)C4)nc4c(C(C)C)cnn34)nccc2c1 (single isomer, unassigned) [Compound 97]
14 | < 6.00 | > 6.00 | 6.00 to 7.00 | B (B indicates 50 < [fold] ≤ 500) | B (B indicates 50 < [fold] ≤ 500) | B (B indicates 50 < [fold] ≤ 500) | < 6.00 | < 6.00 | > 6.00 | C=C(F)C(=O)Nc1ccc2c(-c3ccccc3CNc3cc(NC4CCC(OC)CC4)nc4c(C(C)C)cnn34)nccc2c1 (centres unmarked) [Compound 81]
